# Assay results from US20110172184A1, “ANTITUMOR AGENT CONTAINING 4 - [[3,5 - BIS ([…]) BENZOYL] AMINO] BENZOIC ACID” (TAIHO PHARMACEUTICAL CO., LTD., priority 2008, published 2011).
# Test system: human liver cancer cell line JHH-7
# Test: Antitumor effect (tumor weight T/C) on human liver cancer cell line JHH-7 transplanted into the left lateral liver lobe of nude mice
# Type: in vivo, mouse
# Details: tumor weight on 15th day
# Method: Sorafenib was weighed at every time of use, and a liquid for administration was prepared. […] BALE/cA Jcl-nu male nude mice (Clea Japan, Inc.) were used as the efficacy test animals.
# On the 15th day after the initiation of administration, the mice were killed by bleeding under ether anesthesia, subsequently tumors formed in the left lateral liver lobe were extracted, and the weight of the tumors was measured. The tumor growth rate (%) was calculated by the formula shown below, and the T/C value of each of the drug administered groups was calculated, while the average tumor weight of the non-drug administered control group was taken as 100%. This T/C value was used as an index of the antitumor effect. The statistical significance of the single drug administered groups was determined by Welch's two-tailed test, and the statistical significance of the effect synergizing action obtained by combined use was determined by the intersection union test based on Welch's two-tailed test.
# Tumor growth rate (%)=T/C×100
# T: Average tumor weight of a group with administration of the test compound
# C: Average tumor weight of a group without administration of the test compound
# (§1) On the 11th day after the transplantation, the animals were grouped into seven animals per group, and the treatment experiment was initiated. Doxorubicin was administered such that 10 mg/kg, which is the maximum tolerated dose for a mouse, was administered one time intravenously. Sorafenib was orally administered once a day for 14 consecutive days.
# as §1, with “Gemcitabine” for “Doxorubicin”, “120” for “10”, “intraperitoneally four times in total at an interval of 3 days.” for “one time intravenously.”
structure (smiles),measurement,setting,value
"C[Si](C)(C)c1cc(C(=O)Nc2ccc(C(=O)O)cc2)cc([Si](C)(C)C)c1 [compound 1, 4-[[3,5-bis(trimethylsilyl)benzoyl]amino]benzoic acid]",T/C value (tumor growth rate),"Pharmacological Test Example 1, compound 1 single drug, 2 mg/kg orally once a day for 14 days",51%
COc1cccc2c1C(=O)c1c(O)c3c(c(O)c1C2=O)C[C@@](O)(C(=O)CO)C[C@@H]3O[C@H]1C[C@H](N)[C@H](O)[C@H](C)O1 [doxorubicin],T/C value (tumor growth rate),"Comparative Example 1, doxorubicin single drug, 10 mg/kg one time intravenously",70%
Nc1ccn([C@@H]2O[C@H](CO)[C@@H](O)C2(F)F)c(=O)n1 [gemcitabine],T/C value (tumor growth rate),"Comparative Example 2, gemcitabine single drug, 120 mg/kg intraperitoneally four times at an interval of 3 days",47%
"CNC(=O)c1cc(Oc2ccc(NC(=O)Nc3ccc(Cl)c(C(F)(F)F)c3)cc2)ccn1 [sorafenib, N-(4-chloro-3-(trifluoromethyl)phenyl)-N′-(4-(2-(N-methylcarbamoyl)-4-pyridyloxy)phenyl)urea]",T/C value (tumor growth rate),"Comparative Example 1, sorafenib single drug, orally once a day for 14 days",62%
same,T/C value (tumor growth rate),"Comparative Example 2, sorafenib single drug, orally once a day for 14 days",60%
same,T/C value (tumor growth rate),"Pharmacological Test Example 1, sorafenib single drug, 10 mg/kg orally once a day for 14 days",65%
